Earlier results as cited in PMC2711878 (ACS chemical biology, 2009).

Tests used:
[1] = target: monofunctional P. falciparum WT DHFR
[2] = target: P. falciparum double mutant C59R/S108N DHFR
[3] = target: P. falciparum N51I/C59R/S108N/I164L DHFR
[4] = in vivo

CC1(C)N=C(N)N=C(N)N1OCCCOc1cc(Cl)c(Cl)cc1Cl [WR99210]
Ki value, WT DHFR [1]: sub-nanomolar
Ki value, double mutant DHFR [2]: sub-nanomolar
Ki value, quadruple mutant DHFR [3]: sub-nanomolar
oral bioavailability [4]: poor

CCc1nc(N)nc(N)c1-c1ccc(Cl)cc1 [pyrimethamine]
Ki ([1]; read-out: Ki, WT DHFR, monofunctional enzyme): 1.5 nM
Ki, fold less inhibitory than WT, double mutant ([2]; C59R/S108N, monofunctional enzyme): 50 fold
Ki, fold less inhibitory than WT, quadruple mutant ([3]; N51I/C59R/S108N/I164L, monofunctional enzyme): > 500 fold
